In PubChem BioAssay (NCI) one finds GI50 and TGI data, which are given here for eight compounds.

Some test systems named below: RPMI-8226 leukemia; HT29 colon; MDA-MB-435; 786-0 renal; HS 578T breast; CAKI-1 renal; HCC-2998 colon; HL-60(TB) leukemia; NCI-H460 lung; MOLT-4 leukemia.
Test in all cases: NCI tumour cell line growth inhibition, 48 h

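Growth conditions: 96-well plates. Treatment: test compound, 48 hours, 5 concentrations. Analysis: linear interpolation between bracketing concentrations; unreached endpoints set to highest concentration. Here, GI50 denotes the concentration required for 50% inhibition of growth. TGI is the concentration that stops growth completely.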 Where only a bound is given, the exact number is not on record here.

Consider `C=C1CCC2C3(C)COC(c4ccccc4Br)OC3CCC2(C)C1C/C=C1/C(=O)OCC1OC(C)=O` (stereo not given), for which the GI50 with RPMI-8226 leukemia is 0.645 µM; with HT29 colon it was 0.804 µM; in the assay with MDA-MB-435, 1.48 µM; in the assay on 786-0 renal, 1.63 µM; in the assay with HS 578T breast, 1.89 µM; in the assay on CAKI-1 renal, 2.4 µM. Moreover, the GI50 is 1.73 µM in the assay on HCC-2998 colon, 0.708 µM with HL-60(TB) leukemia, 1.74 µM in the assay on NCI-H460 lung and 0.821 µM with MOLT-4 leukemia. Besides, the TGI with RPMI-8226 leukemia was determined as 6.52 µM; with HT29 colon it was 2.37 µM; in the assay on MDA-MB-435, 3.5 µM; in the assay on 786-0 renal it was 2.98 µM; in the assay with HS 578T breast, 4.65 µM; with CAKI-1 renal it was 6.46 µM. For the same compound, the TGI with HCC-2998 colon is 3.31 µM; with HL-60(TB) leukemia, 2.98 µM; in the assay with NCI-H460 lung, 3.29 µM; in the assay on MOLT-4 leukemia it was 2.91 µM.

Regarding `CCCc1cc(=O)n2c(C(=O)Nc3ccccc3OC)c(C(=O)Nc3ccc(F)cc3)sc2n1`, the GI50 was 3.15 µM with RPMI-8226 leukemia; 44.5 µM with HT29 colon; 36.5 µM with MDA-MB-435; 2.91 µM in the assay with 786-0 renal; 6.27 µM with HS 578T breast; 35.3 µM with CAKI-1 renal. Besides, the GI50 was 131 µM with HCC-2998 colon, 37.4 µM with HL-60(TB) leukemia, 39.8 µM with NCI-H460 lung and 19.8 µM in the assay with MOLT-4 leukemia. In addition, the TGI in the assay with RPMI-8226 leukemia is 32.8 µM; in the assay with HT29 colon, > 160 µM; in the assay on MDA-MB-435 it was > 160 µM; in the assay with 786-0 renal, 10.2 µM; in the assay with HS 578T breast it was 25.6 µM; in the assay with CAKI-1 renal, > 160 µM. Also, the TGI with HCC-2998 colon is > 160 µM; in the assay on HL-60(TB) leukemia, > 160 µM; in the assay on NCI-H460 lung, > 160 µM; in the assay with MOLT-4 leukemia, 57.3 µM.

As for `CSC1(SC2=NCCN2)SC2(NCCN2)S1`, the TGI with RPMI-8226 leukemia was 13.4 µM; with HT29 colon, 38.3 µM; in the assay with MDA-MB-435 it was 31.3 µM; in the assay with 786-0 renal it was 14.2 µM; in the assay on HS 578T breast, 69.1 µM; with CAKI-1 renal it was 27 µM. The TGI is 29.8 µM with HCC-2998 colon, 55.9 µM in the assay on HL-60(TB) leukemia, 45.4 µM with NCI-H460 lung and 52.9 µM with MOLT-4 leukemia.

As to `OCC1OC(n2cnc3c(=S)nc[nH]c32)C(O)C1O` (stereo not given), the GI50 in the assay on RPMI-8226 leukemia was 2.57 µM; in the assay on HT29 colon it was 4.72 µM; in the assay on MDA-MB-435, 3.89 µM; with 786-0 renal, 2.71 µM; with HS 578T breast, 12.8 µM; in the assay on CAKI-1 renal, 6.94 µM. Also, the GI50 with HCC-2998 colon was 2.46 µM; in the assay with HL-60(TB) leukemia it was 3.82 µM; with NCI-H460 lung, 7.72 µM; with MOLT-4 leukemia, 2.58 µM. Further, the TGI in the assay with RPMI-8226 leukemia, in the assay on HT29 colon, in the assay on MDA-MB-435, in the assay on 786-0 renal, in the assay on HS 578T breast and in the assay on CAKI-1 renal was > 2500 µM in each case. In addition, the TGI is > 2500 µM in the assay with HCC-2998 colon, > 2210 µM in the assay with HL-60(TB) leukemia, > 2500 µM with NCI-H460 lung and > 2500 µM in the assay with MOLT-4 leukemia.

Take `COc1cc(C2C3=C(COC3=O)Nc3cc4c(cc32)CCC4)cc2c1OCO2` (stereo not given): the GI50 with RPMI-8226 leukemia was 0.0531 µM; in the assay on HT29 colon it was 0.0299 µM; in the assay on MDA-MB-435, 0.0237 µM; with 786-0 renal, 0.0881 µM; with HS 578T breast it was 0.0425 µM; with CAKI-1 renal, 0.157 µM. In addition, the GI50 was 0.26 µM in the assay on HCC-2998 colon, 0.033 µM in the assay on HL-60(TB) leukemia, 0.0394 µM with NCI-H460 lung and 0.0496 µM in the assay on MOLT-4 leukemia. The TGI in the assay on RPMI-8226 leukemia was > 49.2 µM; in the assay on HT29 colon, 0.845 µM; with MDA-MB-435, 0.0604 µM; in the assay on 786-0 renal, 14.6 µM; with HS 578T breast it was 21.3 µM; in the assay on CAKI-1 renal it was 38.7 µM. The TGI in the assay with HCC-2998 colon was 4.88 µM; in the assay on HL-60(TB) leukemia it was 0.724 µM; in the assay with NCI-H460 lung it was 6.18 µM; in the assay on MOLT-4 leukemia, 15.6 µM.

On to `O=C(COc1cccc(/C=C2\COc3ccc(Cl)cc3C2=O)c1)c1ccc(Cl)cc1`, for which the GI50 with RPMI-8226 leukemia was 2 µM; in the assay on HT29 colon it was 7.69 µM; in the assay with MDA-MB-435, 5.91 µM; in the assay on 786-0 renal it was 16.1 µM; in the assay with HS 578T breast, 18.8 µM; with CAKI-1 renal it was 12.1 µM. In addition, the GI50 is 3.71 µM in the assay on HCC-2998 colon, 8.99 µM in the assay with HL-60(TB) leukemia, 15.8 µM with NCI-H460 lung and 5.95 µM with MOLT-4 leukemia. Moreover, the TGI in the assay with RPMI-8226 leukemia is 5.14 µM; with HT29 colon, 20.2 µM; in the assay on MDA-MB-435, 18.6 µM; in the assay on 786-0 renal, 29.7 µM; in the assay on HS 578T breast, 48.7 µM; with CAKI-1 renal it was 24.5 µM. In addition, the TGI in the assay with HCC-2998 colon was 15.1 µM; in the assay with HL-60(TB) leukemia it was 31.5 µM; with NCI-H460 lung it was 30.1 µM; in the assay on MOLT-4 leukemia, 24.3 µM.

Regarding `O=C(CN1CCN(c2ccccc2)CC1)N1CCN(c2nnc(-c3ccc(Cl)cc3)c(-c3ccc(Cl)cc3)n2)CC1`, the GI50 in the assay with RPMI-8226 leukemia is 3.88 µM; with HT29 colon, 4.04 µM; with MDA-MB-435, 13.7 µM; in the assay with 786-0 renal it was 11.6 µM; in the assay with HS 578T breast it was 16.5 µM; with CAKI-1 renal, 13.5 µM. The GI50 is 16.9 µM with HCC-2998 colon, 3.16 µM in the assay with HL-60(TB) leukemia, 7.92 µM in the assay with NCI-H460 lung and 1.63 µM in the assay with MOLT-4 leukemia. The TGI in the assay on RPMI-8226 leukemia is 20 µM; in the assay with HT29 colon it was 24 µM; with MDA-MB-435, > 100 µM; with 786-0 renal, 53 µM; in the assay with HS 578T breast, > 100 µM; in the assay on CAKI-1 renal it was > 100 µM. The TGI in the assay on HCC-2998 colon is > 100 µM; in the assay on HL-60(TB) leukemia, 19.4 µM; in the assay with NCI-H460 lung it was > 100 µM; in the assay on MOLT-4 leukemia it was 9.97 µM.

For `CC(C)c1ccc(Nc2nccc(-c3cnn4ncccc34)n2)cc1`, the GI50 is 0.466 µM in the assay on RPMI-8226 leukemia; 0.6 µM in the assay on HT29 colon; 0.567 µM with MDA-MB-435; 0.801 µM with 786-0 renal; 0.623 µM with HS 578T breast; 0.8 µM in the assay with CAKI-1 renal. Further, the GI50 was 0.635 µM in the assay with HCC-2998 colon, 1.32 µM in the assay on HL-60(TB) leukemia, 0.496 µM with NCI-H460 lung and 0.888 µM with MOLT-4 leukemia. Besides, the TGI is 2.56 µM in the assay on RPMI-8226 leukemia; 3.24 µM in the assay on HT29 colon; 1.66 µM in the assay on MDA-MB-435; 4.88 µM with 786-0 renal; 5.16 µM in the assay with HS 578T breast; > 15.4 µM in the assay on CAKI-1 renal. Further, the TGI in the assay with HCC-2998 colon was > 10.2 µM; in the assay on HL-60(TB) leukemia, 4.12 µM; in the assay on NCI-H460 lung, 4.95 µM; with MOLT-4 leukemia it was 4.19 µM.
